Measured values as given in patent publication US12398140B2, “Substituted pyrrolo [2,3-d]pyrimidines for treating familial dysautonomia” (PTC THERAPEUTICS, INC., priority 2019, dated 2025).
Where a name gives a salt, the structure may show the parent alone.

System: Elongator complex protein 1 (ELPI, also referred to as IKBKAP)
Assay: IKBKAP-HTRF assay (IKBKAP protein in lysates of FD patient-derived fibroblasts)
Format: cell-based, human
Settings: FD patient-derived fibroblasts GM04589, 48 hours, 7-point concentration curve
Protocol: The assay is used for the quantitative determination of Elongator complex protein 1 (ELPI, also referred to as IKBKAP) concentration in cell lysates using the HTRF® (Homogeneous Time-Resolved Fluorescence) technology. IKBKAP is detected in a sandwich HTRF assay by use of an anti-IKAP antibody labeled with a donor and an anti-IKAP antibody labeled with an acceptor.
Cells were thawed and incubated in DMEM-10% FBS for 72 hours. Cells were trypsinized, counted, and re-suspended to a concentration of 50,000 cells/ml in DMEM-10% FBS. A 199 μL aliquot of the cell suspensions were plated at 10,000 cells per well in a 96 well microtiter plate and incubated for 3 to 5 hours. […] Test compounds were serially diluted 3.16-fold in 100% DMSO to generate a 7-point concentration curve. A 1 μL aliquot of 200× compound solution was transferred to cell-containing wells, and cells were incubated for 48 hours in a cell culture incubator (37° C., 5% CO2, 100% relative humidity). Triplicate samples were set up for each compound concentration. After 48 hours, the supernatant was removed from the cells and 50 μL of the 1×LB4 lysis buffer, containing protease inhibitors, was added to the cells and incubated with shaking at room temperature for 1 hour. A 36 μL aliquot of this lysate was subsequently transferred to the 384-well plate containing 4 μL of the antibody solution (1:50 dilution of anti IKAP d2 and anti-IKAP K(9+8) in detection buffer). The 384-well plate was then centrifuged for 1 minute to bring the solutions to the bottom of the plate and incubated overnight at 4° C. Fluorescence for each well of the plate at 665 nm and 620 nm was measured was on the EnVision plate reader (Perkin Elmer). The ΔF for each sample is calculated by:
[formula] wherein Signal is the normalized fluorescence for each sample well and Blank is the average normalized average fluorescence for the Blank control wells.
The maximum fold increase (MFI) in IKBKAP protein abundance for compounds of Formula (I) or a form thereof relative to the vehicle control are provided in Table 1. MFI was calculated by dividing the ΔF value for each sample well by the sample ΔF for the vehicle control wells.
The EC2x for IKBKAP protein expression obtained from the 7-point concentration curve generated for each test compound according to the protocol in Biological Example 1 are also provided in Table 1. The term “EC2x for IKBKAP protein expression” is defined as the concentration of test compound that is effective in producing two times the amount of IKBKAP protein in a FD patient cell compared to the amount produced from the DMSO vehicle control.

With COC[C@H](N)Cc1c(F)c2c(NCc3ccco3)nc(Cl)nc2n1C.Cl [Cpd 37, 6-[(2R)-2-amino-3-methoxypropyl]-2-chloro-5-fluoro-N-[(furan-2-yl)methyl]-7-methyl-7H-pyrrolo[2,3-d]pyrimidin-4-amine hydrochloride] the “EC2x for IKBKAP protein expression (concentration producing two times the amount of IKBKAP protein vs DMSO vehicle control)” value was “*** (between >0.02 μM and ≤0.5 μM is indicated by three stars (***))” and the “MFI (maximum fold increase in IKBKAP protein abundance relative to the vehicle control)” value was “***** (>4.9 is indicated by five stars (*****))”.

For C[C@H](N)Cc1c(F)c2c(NCc3cccnc3)nc(Cl)nc2n1C.Cl.Cl [Cpd 57, 6-[(2S)-2-aminopropyl]-2-chloro-5-fluoro-7-methyl-N-[(pyridin-3-yl)methyl]-7H-pyrrolo[2,3-d]pyrimidin-4-amine dihydrochloride], the “EC2x for IKBKAP protein expression (concentration producing two times the amount of IKBKAP protein vs DMSO vehicle control)” value was “* (An EC2x>1 μM is indicated by one star (*))” and the “MFI (maximum fold increase in IKBKAP protein abundance relative to the vehicle control)” value was “* (An MFI≤1.9 is indicated by one star (*))”.

Cl.NCCCc1[nH]c2nc(Cl)nc(NCc3ccco3)c2c1F [Cpd 2, 6-(3-aminopropyl)-2-chloro-5-fluoro-N-[(furan-2-yl)methyl]-7H-pyrrolo[2,3-d]pyrimidin-4-amine hydrochloride] was tested, and the “EC2x for IKBKAP protein expression (concentration producing two times the amount of IKBKAP protein vs DMSO vehicle control)” value was “*** (between >0.02 μM and ≤0.5 μM is indicated by three stars (***))” and the “MFI (maximum fold increase in IKBKAP protein abundance relative to the vehicle control)” value was “*** (between >2.9 and ≤3.9 is indicated by three stars (***))”.

CC[C@H](N)Cc1[nH]c2nc(Cl)nc(NCc3nccs3)c2c1F.Cl [Cpd 59, 6-[(2S)-2-aminobutyl]-2-chloro-5-fluoro-N-[(1,3-thiazol-2-yl)methyl]-7H-pyrrolo[2,3-d]pyrimidin-4-amine hydrochloride] was tested, and the “EC2x for IKBKAP protein expression (concentration producing two times the amount of IKBKAP protein vs DMSO vehicle control)” value was “*** (between >0.02 μM and ≤0.5 μM is indicated by three stars (***))” and the “MFI (maximum fold increase in IKBKAP protein abundance relative to the vehicle control)” value was “***** (>4.9 is indicated by five stars (*****))”.

With C[C@H](N)Cc1[nH]c2nc(Cl)nc(NCc3cccnc3)c2c1F.Cl.Cl [Cpd 56, 6-[(2S)-2-aminopropyl]-2-chloro-5-fluoro-N-[(pyridin-3-yl)methyl]-7H-pyrrolo[2,3-d]pyrimidin-4-amine dihydrochloride] the “EC2x for IKBKAP protein expression (concentration producing two times the amount of IKBKAP protein vs DMSO vehicle control)” value was “* (An EC2x>1 μM is indicated by one star (*))” and the “MFI (maximum fold increase in IKBKAP protein abundance relative to the vehicle control)” value was “* (An MFI≤1.9 is indicated by one star (*))”.

In the case of Cc1c(C[C@H](C)N)[nH]c2nc(Cl)nc(NCc3ccco3)c12.Cl [Cpd 33, 6-[(2S)-2-aminopropyl]-2-chloro-N-[(furan-2-yl)methyl]-5-methyl-7H-pyrrolo[2,3-d]pyrimidin-4-amine hydrochloride], the “EC2x for IKBKAP protein expression (concentration producing two times the amount of IKBKAP protein vs DMSO vehicle control)” value is reported as “***** (≤0.005 μM is indicated by five stars (*****))” and the “MFI (maximum fold increase in IKBKAP protein abundance relative to the vehicle control)” value is reported as “***** (>4.9 is indicated by five stars (*****))”.

For C[C@H](N)Cc1c(F)c2c(NCc3ccco3)nc(Cl)nc2n1C.Cl [Cpd 24, 6-[(2S)-2-aminopropyl]-2-chloro-5-fluoro-N-[(furan-2-yl)methyl]-7-methyl-7H-pyrrolo[2,3-d]pyrimidin-4-amine hydrochloride], the “EC2x for IKBKAP protein expression (concentration producing two times the amount of IKBKAP protein vs DMSO vehicle control)” value was “**** (between >0.005 μM and ≤0.02 μM is indicated by four stars (****))” and the “MFI (maximum fold increase in IKBKAP protein abundance relative to the vehicle control)” value was “***** (>4.9 is indicated by five stars (*****))”.

For CC[C@H](N)Cc1cc2c(NCc3ccco3)nc(Cl)nc2[nH]1 [Cpd 26, 6-[(2S)-2-aminobutyl]-2-chloro-N-[(furan-2-yl)methyl]-7H-pyrrolo[2,3-d]pyrimidin-4-amine], the “EC2x for IKBKAP protein expression (concentration producing two times the amount of IKBKAP protein vs DMSO vehicle control)” value was “**** (between >0.005 μM and ≤0.02 μM is indicated by four stars (****))” and the “MFI (maximum fold increase in IKBKAP protein abundance relative to the vehicle control)” value was “**** (between >3.9 and ≤4.9 is indicated by four stars (****))”.

With C[C@H](N)Cc1c(F)c2c(NCc3ccccc3)nc(Cl)nc2n1C.Cl [Cpd 51, 6-[(2S)-2-aminopropyl]-N-benzyl-2-chloro-5-fluoro-7-methyl-7H-pyrrolo[2,3-d]pyrimidin-4-amine hydrochloride] the “EC2x for IKBKAP protein expression (concentration producing two times the amount of IKBKAP protein vs DMSO vehicle control)” value was “*** (between >0.02 μM and ≤0.5 μM is indicated by three stars (***))” and the “MFI (maximum fold increase in IKBKAP protein abundance relative to the vehicle control)” value was “*** (between >2.9 and ≤3.9 is indicated by three stars (***))”.

For C[C@H](N)Cc1c(F)c2c(NCc3cccs3)nc(Cl)nc2n1C.Cl [Cpd 49, 6-[(2S)-2-aminopropyl]-2-chloro-5-fluoro-7-methyl-N-[(thiophen-2-yl)methyl]-7H-pyrrolo[2,3-d]pyrimidin-4-amine hydrochloride], the “EC2x for IKBKAP protein expression (concentration producing two times the amount of IKBKAP protein vs DMSO vehicle control)” value was “**** (between >0.005 μM and ≤0.02 μM is indicated by four stars (****))” and the “MFI (maximum fold increase in IKBKAP protein abundance relative to the vehicle control)” value was “***** (>4.9 is indicated by five stars (*****))”.

C[C@H](N)Cc1c(F)c2c(NCc3ccncc3)nc(Cl)nc2n1C.Cl.Cl [Cpd 43, 6-[(2S)-2-aminopropyl]-2-chloro-5-fluoro-7-methyl-N-[(pyridin-4-yl)methyl]-7H-pyrrolo[2,3-d]pyrimidin-4-amine dihydrochloride] was tested, and the “EC2x for IKBKAP protein expression (concentration producing two times the amount of IKBKAP protein vs DMSO vehicle control)” value was “*** (between >0.02 μM and ≤0.5 μM is indicated by three stars (***))” and the “MFI (maximum fold increase in IKBKAP protein abundance relative to the vehicle control)” value was “***** (>4.9 is indicated by five stars (*****))”.

With CNCCc1[nH]c2nc(Cl)nc(NCc3ccco3)c2c1Br [Cpd 18, 5-bromo-2-chloro-N-(furan-2-yl)methyl]-6-[2-(methylamino)ethyl]-7H-pyrrolo[2,3-d]pyrimidin-4-amine hydrochloride] the “EC2x for IKBKAP protein expression (concentration producing two times the amount of IKBKAP protein vs DMSO vehicle control)” value was “*** (between >0.02 μM and ≤0.5 μM is indicated by three stars (***))” and the “MFI (maximum fold increase in IKBKAP protein abundance relative to the vehicle control)” value was “**** (between >3.9 and ≤4.9 is indicated by four stars (****))”.

With C[C@H](N)Cc1cc2c(NCc3ccoc3)nc(Cl)nc2[nH]1.Cl [Cpd 30, 6-[(2S)-2-aminopropyl]-2-chloro-N-[(furan-3-yl)methyl]-7H-pyrrolo[2,3-d]pyrimidin-4-amine hydrochloride] the “EC2x for IKBKAP protein expression (concentration producing two times the amount of IKBKAP protein vs DMSO vehicle control)” value was “*** (between >0.02 μM and ≤0.5 μM is indicated by three stars (***))” and the “MFI (maximum fold increase in IKBKAP protein abundance relative to the vehicle control)” value was “***** (>4.9 is indicated by five stars (*****))”.

For C[C@H](N)Cc1cc2c(NCc3nccs3)nc(Cl)nc2[nH]1.Cl [Cpd 22, 6-[(2S)-2-aminopropyl]-2-chloro-N-[(1,3-thiazol-2-yl)methyl]-7H-pyrrolo[2,3-d]pyrimidin-4-amine hydrochloride], the “EC2x for IKBKAP protein expression (concentration producing two times the amount of IKBKAP protein vs DMSO vehicle control)” value was “**** (between >0.005 μM and ≤0.02 μM is indicated by four stars (****))” and the “MFI (maximum fold increase in IKBKAP protein abundance relative to the vehicle control)” value was “***** (>4.9 is indicated by five stars (*****))”.

For C[C@H](N)Cc1c(F)c2c(NCc3cncs3)nc(Cl)nc2n1C.Cl.Cl [Cpd 48, 6-[(2S)-2-aminopropyl]-2-chloro-5-fluoro-7-methyl-N-[(1,3-thiazol-5-yl)methyl]-7H-pyrrolo[2,3-d]pyrimidin-4-amine dihydrochloride], the “EC2x for IKBKAP protein expression (concentration producing two times the amount of IKBKAP protein vs DMSO vehicle control)” value was “* (An EC2x>1 μM is indicated by one star (*))” and the “MFI (maximum fold increase in IKBKAP protein abundance relative to the vehicle control)” value was “* (An MFI≤1.9 is indicated by one star (*))”.
